IC50 data for one compound are collected here from ChEMBL document CHEMBL3638533, “4-carboxybenzylamino derivatives as histone deacetylase inhibitors” (2015).

Broadly, the IC50 is the concentration that gives 50% inhibition.

This experiment has as its target Histone deacetylase 1 (Homo sapiens, UniProt Q13547). The experiment is described as follows: Flag Assay: Novel compounds were tested for their ability to inhibit histone deacetylase, subtype 1 (HDAC1) using an in vitro deacetylation assay. The enzyme source for this assay was an epitope-tagged human HDAC1 complex immuno-purified from stably expressing mammalian cells. The substrate consisted of a commercial product containing an acetylated lysine side chain (BIOMOL Research Laboratories, Inc., Plymouth Meeting, Pa.). Upon deacetylation of the substrate by incubation with the purified HDAC1 complex, a fluorophore is produced that is directly proportional to the level of deacetylation.

Chain of Histone deacetylase 1 (Q13547 whole entry): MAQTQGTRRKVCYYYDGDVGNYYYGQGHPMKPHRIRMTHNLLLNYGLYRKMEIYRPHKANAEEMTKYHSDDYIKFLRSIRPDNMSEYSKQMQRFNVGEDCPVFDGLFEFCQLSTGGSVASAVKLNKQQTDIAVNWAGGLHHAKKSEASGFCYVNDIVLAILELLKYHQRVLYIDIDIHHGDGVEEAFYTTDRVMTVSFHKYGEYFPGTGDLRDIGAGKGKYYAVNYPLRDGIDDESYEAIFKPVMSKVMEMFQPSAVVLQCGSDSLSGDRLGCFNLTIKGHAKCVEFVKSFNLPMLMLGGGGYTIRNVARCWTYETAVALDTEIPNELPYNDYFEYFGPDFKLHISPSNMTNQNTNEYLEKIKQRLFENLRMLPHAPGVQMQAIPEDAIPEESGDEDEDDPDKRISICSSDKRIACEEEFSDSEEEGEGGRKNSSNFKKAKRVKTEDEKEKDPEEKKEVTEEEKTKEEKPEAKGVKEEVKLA

`O=C(Nc1cc(-c2ccccc2)ccc1O)c1ccc(CNCCc2c[nH]cn2)cc1` displayed a half-maximal inhibitory concentration (IC50) of 2500 nM.
